This is an account of results in US12071404B2, “Aza (indole)-, benzothiophene-, and benzofuran-3-sulfonamides” (UCB Pharma GmbH, priority 2016, dated 2024).

The structures appear in SMILES notation.

GPR17, sequence (Q13304 whole entry): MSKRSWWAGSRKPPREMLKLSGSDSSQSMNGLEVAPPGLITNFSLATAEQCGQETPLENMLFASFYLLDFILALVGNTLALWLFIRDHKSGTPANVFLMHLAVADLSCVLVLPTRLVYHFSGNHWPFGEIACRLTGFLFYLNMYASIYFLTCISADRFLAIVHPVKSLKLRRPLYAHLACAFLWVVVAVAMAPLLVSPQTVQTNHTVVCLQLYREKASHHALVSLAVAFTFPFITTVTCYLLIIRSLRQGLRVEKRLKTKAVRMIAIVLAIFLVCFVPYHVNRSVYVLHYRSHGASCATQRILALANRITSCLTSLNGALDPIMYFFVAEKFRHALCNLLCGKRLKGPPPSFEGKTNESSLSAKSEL

This experiment addresses GPR17 (Homo sapiens, UniProt Q13304). Kind of experiment: Calcium mobilization functional assay (GPR17 Ca2+ assay). It counts as cell-based. On the set-up: host or cells: Flp-In T-REx CHO. Particulars: CHO hGPR17 cells, inhibition of 50 nM MDL29,951, Calcium 5 dye, FLIPR; read-out: Ca2+ assay pIC50 (converted). How it is done: Flp-In T-REx CHO cells stably expressing human GPR17 receptor (CHO hGPR17) from Evi Kostenis' lab (Bonn University, Germany) were cultured at 37° C. in a humidified atmosphere of 5% CO2. Cells were grown in DMEM with Nutrient Mixture F-12 supplemented with hygromycin B (500 μg/mL) and blasticidin (30 μg/mL). Expression from the Flp-In locus was induced by treatment with doxycycline (1 μg/mL) for 16-20 h prior assays.
GPR17 is a G-protein coupled receptor. GPR17 activation triggers Gq-type G-protein signaling resulting in endoplasmic reticulum calcium (Ca^2+) stores release in cytosol which can be measured using Calcium 5 dye, a fluorescent indicator dye of cytosolic Ca^2+ levels. All Examples were tested in GPR17 Ca^2+ assay to determine (screen) their GPR17 modulating activity.
CHO hGPR17 were defrosted and seeded at a density of 20,000 cells per well into black 384-well plates with clear bottom. Cells were incubated overnight at 37° C. in a humidified atmosphere of 5% CO2. Sixteen to twenty hours after seeding, CHO hGPR17 were loaded for 60 min with Calcium 5 dye, a cytosolic Ca^2+ indicator fluorescent dye, according to manufacturer's instructions. Fluorescent signal relative to cytosolic Ca^2+ concentration was recorded over time at room temperature in FLIPR Tetra reader. […] Then, 50 nM MDL29,951, a GPR17 agonist, was added to the cells. Inhibitory effects of varying concentrations test compounds were measured and resulting plC50s were determined. […] Analysis and curve fitting were performed in ActivityBase XE using XLfit 4-parameter logistic equation y=A+((B−A)/(1+((C/x)^D))) where A, B, C and D stand for minimum y, maximum y, IC50 and slope, respectively.
The activities of the Example compounds tested are depicted in the table in Section B2B below. The activity ranges A, B and C refer to plC50 values in the Ca^2+ assay as follows: “A”: plC50<7.5, “B”: plC50 7.5<x≤ 8.5, “C”: plC50>8.5
A general note: Calcium assays in cells follow changes in intracellular calcium, usually with a dye or a luminescent sensor.
In the case of `O=S(=O)(Nc1cccc2c1OC(F)(F)O2)c1c[nH]c2ncc(I)cc12` [Compound I-99, N-(2,2-difluoro-1,3-benzodioxol-4-yl)-5-iodo-1H-pyrrolo[2,3-b]pyridine-3-sulfonamide], the IC50 was more than 31.6 nM.

Regarding `O=S(=O)(Nc1ccc(I)cc1F)c1c[nH]c2cc(C(F)(F)F)ccc12` [Compound I-42, N-(2-fluoro-4-iodophenyl)-6-(trifluoromethyl)-1H-indole-3-sulfonamide], the IC50 was more than 31.6 nM.

In the case of `O=S(=O)(Nc1ccc(Cl)cc1F)c1c[nH]c2cc(C(F)(F)F)ccc12` [Compound I-53, N-(4-chloro-2-fluorophenyl)-6-(trifluoromethyl)-1H-indole-3-sulfonamide], the IC50 is more than 31.6 nM.

As to `O=S(=O)(Nc1ccc(C(F)(F)F)cn1)c1c[nH]c2cc(Cl)ccc12` [Compound I-211, 6-chloro-N-[5-(trifluoromethyl)pyridin-2-yl]-1H-indole-3-sulfonamide], the IC50 was more than 31.6 nM.

As for `O=S(=O)(Nc1cc(F)c(F)cc1F)c1c[nH]c2cc3c(cc12)OCO3` [Compound I-46, N-(2,4,5-trifluorophenyl)-5H-[1,3]dioxolo[4,5-f]indole-7-sulfonamide], the IC50 was more than 31.6 nM.

For the compound `CC(C#N)c1ccc(NS(=O)(=O)c2c[nH]c3cc(Cl)ccc23)c(F)c1` (centres unmarked) [Compound I-207, 6-chloro-N-[4-(1-cyanoethyl)-2-fluorophenyl]-1H-indole-3-sulfonamide], the IC50 is more than 31.6 nM.

As to `N#Cc1ccc(NS(=O)(=O)c2c[nH]c3ccc(Br)cc23)cc1` [Compound I-13, 5-bromo-N-(4-cyanophenyl)-1H-indole-3-sulfonamide], the IC50 is more than 31.6 nM.

On to `Cc1cc2c(S(=O)(=O)Nc3cccc4c3OCO4)c[nH]c2cc1Br` [Compound I-35, N-(1,3-benzodioxol-4-yl)-6-bromo-5-methyl-1H-indole-3-sulfonamide], for which the IC50 is more than 31.6 nM.

For `N#Cc1cc(F)c(NS(=O)(=O)c2c[nH]c3c(Br)cccc23)cc1F` [Compound I-167, 7-bromo-N-(4-cyano-2,5-difluorophenyl)-1H-indole-3-sulfonamide], the IC50 was 3.16 to 31.6 nM.

As to `O=S(=O)(Nc1cc2c(cc1F)OC(F)(F)O2)c1c[nH]c2c1ccc1cccnc12` [Compound I-70, N-(2,2,6-trifluoro-1,3-benzodioxol-5-yl)-1H-pyrrolo[3,2-h]quinoline-3-sulfonamide], the IC50 is more than 31.6 nM.

As for `O=S(=O)(Nc1ccc2nsnc2c1)c1c[nH]c2cc(C(F)(F)F)ccc12` [Compound I-192, N-(2,1,3-benzothiadiazol-5-yl)-6-(trifluoromethyl)-1H-indole-3-sulfonamide], the IC50 was less than 3.16 nM.

Consider `C#Cc1ccc(NS(=O)(=O)c2c[nH]c3cc(S(C)(=O)=O)ccc23)cc1` [Compound I-34, N-(4-ethynylphenyl)-6-(methylsulfonyl)-1H-indole-3-sulfonamide], for which the IC50 was more than 31.6 nM.

For the compound `CS(=O)(=O)c1ccc2c(S(=O)(=O)Nc3ccc4c(c3)OC(F)(F)O4)c[nH]c2c1` [Compound I-36, N-(2,2-difluoro-1,3-benzodioxol-5-yl)-6-(methylsulfonyl)-1H-indole-3-sulfonamide], the IC50 is more than 31.6 nM.

With `N#Cc1ccc(NS(=O)(=O)c2c[nH]c3cc(F)ccc23)cc1` [Compound I-171, N-(4-cyanophenyl)-6-fluoro-1H-indole-3-sulfonamide], the IC50 was more than 31.6 nM.

In the case of `O=S(=O)(Nc1ccc(Br)cc1)c1c[nH]c2cc(Cl)ccc12` [Compound I-218, N-(4-bromophenyl)-6-chloro-1H-indole-3-sulfonamide], the IC50 was more than 31.6 nM.

On to `N#Cc1ccc(NS(=O)(=O)c2c[nH]c3ccccc23)c(F)c1` [Compound I-105, N-(4-cyano-2-fluorophenyl)-1H-indole-3-sulfonamide], for which the IC50 is more than 31.6 nM.

For the compound `COc1ccc2c(S(=O)(=O)Nc3cccc4nsnc34)c[nH]c2c1` [Compound I-64, N-(2,1,3-benzothiadiazol-4-yl)-6-methoxy-1H-indole-3-sulfonamide], the IC50 was more than 31.6 nM.
